# According to US20150005269A1, “Treatment of Heart Failure and Sudden Cardiac Death” (Rhode Island Hospital, priority 2012, published 2015):
# System: SERCA2
# Test: SERCA2 protein level by Western blot in cultured neonatal rabbit ventricular cardiomyocytes
# Type: cell-based
# Settings: cultured neonatal rabbit ventricular cardiomyocytes (NRbVCM), 50 nM RU486 for 48 hours, normalized against GAPDH
# Description: Protein level of SERCA2 was analyzed by western blots. All measurements were normalized against GAPDH. Bar graphs represent the averages of three independent experiments plus S.D. in arbitrary unit. * p<0.05. […] Ventricular cardiomyocytes were isolated in neonatal wild type NZW rabbits (3-5 days old, 70-110 g) with enzymatic techniques. The hearts were removed from euthanized rabbits and perfused for 5 to 7 minutes with a free solution containing 140 mM NaCl, 4.4 mM KCl, 1.5 mM MgCl2, 0.33 mM NaH2PO4, 16 mM taurine, 5 mM HEPES, 5 mM pyruvic acid, and 7.5 mM glucose. Subsequently, the hearts were perfused for 10 to 15 minutes with the same solution to which 0.3 mg/ml collagenase was added. The whole ventricles were cut off and minced, and the cells were dispersed in a solution containing 45 mM KCl, 65 mM K-glutamate, 3 mM MgSO4, 15 mM KH2PO4, 16 mM taurine, 10 mM HEPES, 0.5 mM EDTA, and 10 mM glucose (pH 7.3). The cell suspension was filtered through a 100-pm cell strainer and kept at room temperature for one hour. Thereafter, the cells were gradually recovered with MEM, in which Ca^2+ concentration was increased from 100 μM, 500 μM, 1000 μM and 1800 μM. Every well of six-well plate was seed one million cells, cultured in DMEM (Lonza 12-[MUT],) with 7% FBS and 100 μM of BrdU. Medium was changed every 24 to 48 hours. […] The SERCA2 is detected by anti-SERCA2 antibody. […]
smiles,measurement,value
"CC#C[C@]1(O)CC[C@H]2[C@@H]3CCC4=CC(=O)CCC4=C3[C@@H](c3ccc(N(C)C)cc3)C[C@@]21C [RU486, Mifepristone]",increase of the expression of SERCA2 polypeptides,60%
